Results published in publication PMC5049701 (Nature chemical biology, 2016).

Molecular target: T1, FsqB (Aspergillus fumigatus, UniProt Q4WD43)
T1 sequence (Q4WD43 1-497): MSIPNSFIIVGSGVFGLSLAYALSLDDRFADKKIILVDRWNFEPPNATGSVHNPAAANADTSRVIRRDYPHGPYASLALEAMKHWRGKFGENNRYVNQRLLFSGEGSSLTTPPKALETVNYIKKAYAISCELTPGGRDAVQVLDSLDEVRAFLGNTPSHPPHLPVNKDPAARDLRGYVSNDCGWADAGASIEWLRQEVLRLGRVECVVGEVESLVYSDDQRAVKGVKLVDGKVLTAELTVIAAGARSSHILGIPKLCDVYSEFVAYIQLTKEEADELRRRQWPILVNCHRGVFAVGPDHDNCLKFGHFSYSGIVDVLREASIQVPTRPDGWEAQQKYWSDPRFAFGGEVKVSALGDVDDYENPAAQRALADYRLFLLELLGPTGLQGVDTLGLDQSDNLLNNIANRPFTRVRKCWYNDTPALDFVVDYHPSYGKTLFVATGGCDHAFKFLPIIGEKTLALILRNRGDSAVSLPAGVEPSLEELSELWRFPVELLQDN
Assay: tryptic digest UHPLC-MS/MS
Format: binding
Settings: covalent, bound to cysteine-414

Q: For `Cc1cc2nc3c(=O)[nH]c(=O)nc-3n(C[C@H](O)[C@H](O)[C@H](O)COP(=O)(O)OP(=O)(O)OC[C@H]3O[C@@H](n4cnc5c(N)ncnc54)[C@H](O)[C@@H]3O)c2cc1C` [FAD], which “tryptic digest UHPLC-MS/MS; flavin fluorescence” value is on record?
A: presence of FAD, which was found to be covalently bound to cysteine-414
